Reference: ChEMBL document CHEMBL1201862, “PubChem BioAssay data set” (2004)
The source made the active and inactive calls.

Experiments:
[1] = test system: HEK293; test: NOD2 signaling inhibitors in MDP-stimulated cells, cell-based, uHTS, luminescence (AID 2001); format: functional; settings: Homo sapiens
[2] = test system: HEK293; test: cells; format: functional, cell-based; settings: Homo sapiens
[3] = biological target: T1, Nucleotide-binding oligomerization domain-containing protein 1 (Homo sapiens, UniProt Q9Y239); test: NOD1 signaling inhibitors, SAR follow-up, revised (AID 2333); format: functional
T1 sequence (Q9Y239 whole entry): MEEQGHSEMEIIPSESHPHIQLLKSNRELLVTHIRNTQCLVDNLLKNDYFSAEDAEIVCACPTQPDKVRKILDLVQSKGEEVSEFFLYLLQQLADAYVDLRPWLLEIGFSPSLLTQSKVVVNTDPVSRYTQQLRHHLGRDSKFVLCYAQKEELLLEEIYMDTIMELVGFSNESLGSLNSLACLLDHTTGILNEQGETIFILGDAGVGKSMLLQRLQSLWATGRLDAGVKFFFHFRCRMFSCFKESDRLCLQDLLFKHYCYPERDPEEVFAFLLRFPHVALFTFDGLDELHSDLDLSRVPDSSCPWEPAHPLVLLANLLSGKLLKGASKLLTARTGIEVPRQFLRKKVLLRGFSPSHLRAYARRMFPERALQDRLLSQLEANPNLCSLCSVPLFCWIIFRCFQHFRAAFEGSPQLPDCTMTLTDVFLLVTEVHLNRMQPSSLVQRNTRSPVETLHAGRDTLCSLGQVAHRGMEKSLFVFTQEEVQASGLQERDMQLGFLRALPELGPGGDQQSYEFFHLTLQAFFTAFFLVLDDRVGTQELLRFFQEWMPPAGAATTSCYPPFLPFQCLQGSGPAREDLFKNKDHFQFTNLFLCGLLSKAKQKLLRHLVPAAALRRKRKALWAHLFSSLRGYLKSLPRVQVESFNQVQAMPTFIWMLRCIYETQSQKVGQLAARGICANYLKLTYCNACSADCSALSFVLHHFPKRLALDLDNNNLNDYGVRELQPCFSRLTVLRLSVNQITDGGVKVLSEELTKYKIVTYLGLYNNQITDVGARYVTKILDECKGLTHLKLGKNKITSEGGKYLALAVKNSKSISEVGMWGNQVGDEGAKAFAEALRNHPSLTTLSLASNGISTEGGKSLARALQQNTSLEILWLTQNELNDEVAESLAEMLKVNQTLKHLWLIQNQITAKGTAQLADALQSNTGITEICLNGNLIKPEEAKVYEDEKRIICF

[4] = biological target: Nucleotide-binding oligomerization domain-containing protein 2 (Homo sapiens, UniProt Q9HC29); test: PubChem AID 2334; format: functional
[5] = test system: HEK293; test: cells; settings: Homo sapiens
[6] = test system: HEK293; test: cells; format: functional, cell-based; settings: Homo sapiens; remark: listed apart in the source
[7] = inhibitors of Bluetongue virus cytopathic effect, confirmation, arbovirus, BSR cells (AID 1250); format: functional;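 further: protection from viral cytopathic effect measured as cell viability by ATP luminescence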
[8] = test system: HEK293; test: NOD1 signaling inhibitors, primary screen, cell-based, luminescence, uHTS (AID 1578); format: functional; settings: Homo sapiens
[9] = biological target: Tumor necrosis factor (Homo sapiens, UniProt P01375); test: TNFa-triggered NF-kB activation inhibitors, SAR follow-up, cell-based, revised (AID 2337); format: functional
[10] = biological target: T2, Streptokinase A (Streptococcus pyogenes serotype M1, UniProt P10520); test: S. pyogenes streptokinase expression inhibitors, potency, dose response, plasminogen activation absorbance, OD405 (AID 1914); format: functional, Streptococcus pyogenes M1 GAS;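 further: secreted streptokinase activity via plasminogen activation per viability signal from cell pellet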
T2 sequence (P10520 whole entry): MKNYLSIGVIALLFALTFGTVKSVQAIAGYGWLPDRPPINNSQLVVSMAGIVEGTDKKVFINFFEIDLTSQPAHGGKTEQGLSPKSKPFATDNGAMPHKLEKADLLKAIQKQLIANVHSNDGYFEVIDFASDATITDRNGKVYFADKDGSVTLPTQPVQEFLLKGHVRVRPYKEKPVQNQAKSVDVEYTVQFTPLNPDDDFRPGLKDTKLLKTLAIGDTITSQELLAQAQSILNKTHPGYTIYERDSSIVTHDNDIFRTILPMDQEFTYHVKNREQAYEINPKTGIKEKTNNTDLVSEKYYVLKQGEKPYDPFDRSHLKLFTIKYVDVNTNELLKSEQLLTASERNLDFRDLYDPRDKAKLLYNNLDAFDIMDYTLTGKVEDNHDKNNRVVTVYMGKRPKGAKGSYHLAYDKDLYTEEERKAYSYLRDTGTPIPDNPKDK

[11] = test system: Streptococcus; test: Group A Streptococcus viability loss, dose response, counter-screen for streptokinase expression inhibitor project, luminescence, BacTiterGlo (AID 1915); format: functional, organism-based;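 further: potency for reduction of bacterial viability or growth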
[12] = test system: Streptococcus sp. 'group A'; test: growth inhibition of control SK(-) GAS strain, dose response, counter-screen for streptokinase expression inhibitor project, luminescence, kanamycin, BacTiterGlo, confirmation (AID 1900); format: functional, organism-based
[13] = biological target: G-protein coupled receptor 35 (Homo sapiens, UniProt Q9HC97); test: GPR35 antagonists blocking zaprinast-driven arrestin recruitment, primary screen, imaging, U2OS, beta-arrestin-GFP, zaprinast agonist (AID 2058); format: functional;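 further: antagonist potency meaning inhibition of agonist-induced arrestin redistribution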
[14] = biological target: T3, Tyrosyl-DNA phosphodiesterase 2 (Homo sapiens, UniProt O95551); test: human TDP2 enzyme inhibitors, dose response, biochemical, epi absorbance, IC50 (AID 743297)
T3 sequence (O95551 whole entry): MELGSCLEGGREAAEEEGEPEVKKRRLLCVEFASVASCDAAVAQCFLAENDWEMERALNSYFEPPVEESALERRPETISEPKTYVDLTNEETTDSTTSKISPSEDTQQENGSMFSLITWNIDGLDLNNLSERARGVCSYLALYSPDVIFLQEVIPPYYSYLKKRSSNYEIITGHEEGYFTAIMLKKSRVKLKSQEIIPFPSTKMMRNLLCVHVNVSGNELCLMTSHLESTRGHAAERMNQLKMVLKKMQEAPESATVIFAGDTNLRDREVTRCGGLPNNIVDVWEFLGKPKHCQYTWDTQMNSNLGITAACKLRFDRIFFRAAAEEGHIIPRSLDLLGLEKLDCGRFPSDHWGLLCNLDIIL

[15] = biological target: 14-3-3 protein gamma (Homo sapiens, UniProt P61981); test: modulators of 14-3-3 gamma client binding – dose response (AID 711); format: functional
[16] = biological target: Histone-lysine N-methyltransferase NSD2 (Homo sapiens, UniProt O96028); format: biochemical
[17] = biological target: T4, Sentrin-specific protease 8 (Homo sapiens, UniProt Q96LD8); format: functional
T4 sequence (Q96LD8 whole entry): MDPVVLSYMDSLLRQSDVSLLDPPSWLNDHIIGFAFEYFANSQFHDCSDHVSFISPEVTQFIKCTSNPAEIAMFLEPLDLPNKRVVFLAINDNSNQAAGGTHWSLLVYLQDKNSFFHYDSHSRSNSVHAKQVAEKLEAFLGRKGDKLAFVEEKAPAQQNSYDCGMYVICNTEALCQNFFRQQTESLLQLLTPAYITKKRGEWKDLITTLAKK

[18] = test system: HeLa; test: HeLa cell cytotoxicity, dose response, cytotoxicity control, 24 h, cherry-picked samples (AID 504726); format: functional, cell-based; settings: Homo sapiens;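 further: potency for cytotoxicity as loss of luminescence signal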
[19] = biological target: T4, Sentrin-specific protease 8; format: functional; remark: listed apart in the source
[20] = biological target: T5, Fibrinogen beta chain (Homo sapiens, UniProt P02675); test: Fluorescence polarization-based biochemical high throughput dose response assay to identify inhibitors that disrupt the binding of a cyclic peptide (Tn6) to the fibrin proteolytic product D-Dimer and fragment E complex [DD(E )].
[21] = biological target: T6, Protein RecA (Mycobacterium tuberculosis, UniProt P9WHJ3); test: Fluorescence Cell-Free Homogeneous Dose Retest to Identify Inhibitors of RecA-Intein Splicing Activity. [Related pubchem assays (depositor defined):AID2097, AID2223, AID489010, AID492950]; format: functional
T6 sequence (P9WHJ3 whole entry): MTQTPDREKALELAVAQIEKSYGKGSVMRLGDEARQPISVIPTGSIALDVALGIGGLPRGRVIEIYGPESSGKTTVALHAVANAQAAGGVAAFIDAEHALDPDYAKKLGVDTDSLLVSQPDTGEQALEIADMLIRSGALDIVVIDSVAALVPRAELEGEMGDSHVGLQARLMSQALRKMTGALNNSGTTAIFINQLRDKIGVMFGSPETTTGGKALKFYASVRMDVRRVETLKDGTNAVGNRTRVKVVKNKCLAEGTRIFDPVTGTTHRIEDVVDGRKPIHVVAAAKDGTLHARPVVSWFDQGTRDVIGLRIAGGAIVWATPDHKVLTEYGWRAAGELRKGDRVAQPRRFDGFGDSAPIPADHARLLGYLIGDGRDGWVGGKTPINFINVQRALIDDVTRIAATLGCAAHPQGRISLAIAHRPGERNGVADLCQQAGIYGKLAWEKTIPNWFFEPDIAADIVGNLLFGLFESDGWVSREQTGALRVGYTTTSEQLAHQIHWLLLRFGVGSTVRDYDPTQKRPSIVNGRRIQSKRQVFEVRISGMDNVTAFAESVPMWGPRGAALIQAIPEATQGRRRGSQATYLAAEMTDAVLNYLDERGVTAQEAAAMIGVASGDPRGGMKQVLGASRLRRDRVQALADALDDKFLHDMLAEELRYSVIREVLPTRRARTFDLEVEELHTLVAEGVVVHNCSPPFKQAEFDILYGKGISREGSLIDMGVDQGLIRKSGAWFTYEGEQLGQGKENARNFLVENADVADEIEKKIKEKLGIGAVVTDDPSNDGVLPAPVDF

[22] = biological target: Glutathione-S-transferase (Schistosoma japonicum, UniProt Q26513); test: biotin-GST/anti-GST TR-FRET signal inhibitors, dose response, artefact control for Vif-APOBEC3G degradation inhibitor project, biochemical (AID 1117362); format: functional
[23] = biological target: T5, Fibrinogen beta chain; test: Fluorescence polarization-based biochemical high throughput dose response assay to identify inhibitors that disrupt the binding of a cyclic peptide (Tn7) to the fibrin proteolytic product D-Dimer and fragment E complex [DD(E )].
[24] = biological target: T7, Replicative DNA helicase DnaB (Mycobacterium tuberculosis, UniProt P9WMR3); test: DnaB intein splicing inhibitors, dose response, biochemical, cell-free fluorescence (AID 449749); format: functional
T7 sequence (P9WMR3 whole entry): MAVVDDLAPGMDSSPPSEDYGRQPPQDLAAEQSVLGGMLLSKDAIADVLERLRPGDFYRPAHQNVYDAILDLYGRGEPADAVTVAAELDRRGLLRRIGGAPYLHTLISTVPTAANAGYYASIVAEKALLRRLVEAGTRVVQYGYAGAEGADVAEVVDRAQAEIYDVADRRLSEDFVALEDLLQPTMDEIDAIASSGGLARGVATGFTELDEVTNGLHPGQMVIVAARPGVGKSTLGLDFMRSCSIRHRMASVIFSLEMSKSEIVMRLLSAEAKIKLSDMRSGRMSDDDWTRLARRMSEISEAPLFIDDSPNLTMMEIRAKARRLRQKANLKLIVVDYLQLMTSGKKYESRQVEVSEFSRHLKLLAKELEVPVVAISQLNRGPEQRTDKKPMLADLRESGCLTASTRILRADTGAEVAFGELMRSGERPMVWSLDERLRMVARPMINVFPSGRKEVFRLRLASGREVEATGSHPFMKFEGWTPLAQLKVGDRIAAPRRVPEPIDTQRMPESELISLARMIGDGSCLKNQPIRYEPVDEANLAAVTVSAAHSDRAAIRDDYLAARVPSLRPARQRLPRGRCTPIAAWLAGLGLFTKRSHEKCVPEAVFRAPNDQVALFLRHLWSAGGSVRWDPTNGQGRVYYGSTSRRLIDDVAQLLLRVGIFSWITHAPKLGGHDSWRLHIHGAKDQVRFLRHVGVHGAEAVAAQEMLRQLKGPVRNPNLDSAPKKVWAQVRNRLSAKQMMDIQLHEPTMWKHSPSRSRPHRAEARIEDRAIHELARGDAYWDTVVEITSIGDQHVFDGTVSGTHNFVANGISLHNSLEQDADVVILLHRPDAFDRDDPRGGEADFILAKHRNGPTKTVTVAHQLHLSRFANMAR

T5 sequence (P02675 whole entry, the tested form may be a part): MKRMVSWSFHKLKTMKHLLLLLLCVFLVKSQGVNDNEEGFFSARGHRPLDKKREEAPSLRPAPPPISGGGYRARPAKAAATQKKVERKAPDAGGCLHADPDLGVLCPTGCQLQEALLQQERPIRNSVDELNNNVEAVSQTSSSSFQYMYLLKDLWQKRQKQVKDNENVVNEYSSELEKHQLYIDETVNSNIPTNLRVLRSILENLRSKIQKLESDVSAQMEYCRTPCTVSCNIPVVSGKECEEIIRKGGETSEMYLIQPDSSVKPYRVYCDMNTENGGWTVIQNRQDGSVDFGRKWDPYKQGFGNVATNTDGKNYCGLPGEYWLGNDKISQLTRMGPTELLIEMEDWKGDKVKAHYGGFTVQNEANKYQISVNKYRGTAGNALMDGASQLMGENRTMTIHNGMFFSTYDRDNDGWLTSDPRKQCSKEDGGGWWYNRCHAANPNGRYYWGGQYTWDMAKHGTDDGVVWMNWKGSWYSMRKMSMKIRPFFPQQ
Chain of Nucleotide-binding oligomerization domain-containing protein 2 (Q9HC29 whole entry, the tested form may be a part): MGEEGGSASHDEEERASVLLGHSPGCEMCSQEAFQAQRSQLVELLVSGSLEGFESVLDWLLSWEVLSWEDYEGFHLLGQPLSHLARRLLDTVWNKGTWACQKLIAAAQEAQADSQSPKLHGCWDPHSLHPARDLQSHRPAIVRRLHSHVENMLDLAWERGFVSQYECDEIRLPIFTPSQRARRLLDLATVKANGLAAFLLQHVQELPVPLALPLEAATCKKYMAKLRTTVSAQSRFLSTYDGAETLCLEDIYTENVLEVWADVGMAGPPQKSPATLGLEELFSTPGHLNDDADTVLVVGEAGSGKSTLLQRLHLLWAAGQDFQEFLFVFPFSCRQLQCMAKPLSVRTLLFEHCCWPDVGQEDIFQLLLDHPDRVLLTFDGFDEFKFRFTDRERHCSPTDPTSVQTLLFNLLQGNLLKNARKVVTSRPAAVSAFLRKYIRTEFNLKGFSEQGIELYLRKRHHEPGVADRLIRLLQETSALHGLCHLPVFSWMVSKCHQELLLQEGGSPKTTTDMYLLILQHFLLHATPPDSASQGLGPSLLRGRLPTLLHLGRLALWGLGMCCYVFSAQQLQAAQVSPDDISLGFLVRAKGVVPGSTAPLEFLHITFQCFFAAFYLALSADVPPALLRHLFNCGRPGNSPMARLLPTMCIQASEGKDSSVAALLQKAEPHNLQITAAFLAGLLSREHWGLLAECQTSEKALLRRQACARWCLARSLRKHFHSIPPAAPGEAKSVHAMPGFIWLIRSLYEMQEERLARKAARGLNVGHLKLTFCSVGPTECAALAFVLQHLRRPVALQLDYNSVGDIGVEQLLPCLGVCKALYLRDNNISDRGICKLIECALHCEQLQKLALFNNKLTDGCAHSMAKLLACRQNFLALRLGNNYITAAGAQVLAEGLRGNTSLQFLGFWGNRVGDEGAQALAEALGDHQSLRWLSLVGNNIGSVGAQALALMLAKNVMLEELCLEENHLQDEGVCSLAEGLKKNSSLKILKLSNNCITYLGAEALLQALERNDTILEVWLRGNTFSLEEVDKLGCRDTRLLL
Chain of G-protein coupled receptor 35 (Q9HC97 whole entry): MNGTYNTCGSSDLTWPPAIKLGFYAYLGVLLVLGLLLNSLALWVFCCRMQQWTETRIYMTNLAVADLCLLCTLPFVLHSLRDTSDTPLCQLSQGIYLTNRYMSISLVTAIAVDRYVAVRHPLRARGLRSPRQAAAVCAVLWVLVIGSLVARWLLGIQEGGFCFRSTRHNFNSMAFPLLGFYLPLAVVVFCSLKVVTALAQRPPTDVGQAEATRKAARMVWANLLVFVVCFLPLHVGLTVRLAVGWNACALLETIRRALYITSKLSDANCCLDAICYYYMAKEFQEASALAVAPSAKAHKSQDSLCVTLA
Chain of Tumor necrosis factor (P01375 whole entry): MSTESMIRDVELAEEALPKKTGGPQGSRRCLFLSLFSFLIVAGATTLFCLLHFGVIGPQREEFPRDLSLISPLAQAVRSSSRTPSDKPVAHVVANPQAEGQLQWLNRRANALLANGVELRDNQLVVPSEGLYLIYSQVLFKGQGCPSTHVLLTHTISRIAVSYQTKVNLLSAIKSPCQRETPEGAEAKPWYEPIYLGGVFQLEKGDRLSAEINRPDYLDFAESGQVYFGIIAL
Chain of 14-3-3 protein gamma (P61981 whole entry): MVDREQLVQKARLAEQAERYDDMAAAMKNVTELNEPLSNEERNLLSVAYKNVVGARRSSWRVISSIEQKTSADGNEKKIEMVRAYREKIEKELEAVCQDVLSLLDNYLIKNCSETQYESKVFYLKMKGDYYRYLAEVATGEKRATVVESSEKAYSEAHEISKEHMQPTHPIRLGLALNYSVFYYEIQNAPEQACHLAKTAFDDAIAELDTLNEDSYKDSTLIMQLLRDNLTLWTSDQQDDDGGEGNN
Chain of Glutathione-S-transferase (Q26513 whole entry, the tested form may be a part): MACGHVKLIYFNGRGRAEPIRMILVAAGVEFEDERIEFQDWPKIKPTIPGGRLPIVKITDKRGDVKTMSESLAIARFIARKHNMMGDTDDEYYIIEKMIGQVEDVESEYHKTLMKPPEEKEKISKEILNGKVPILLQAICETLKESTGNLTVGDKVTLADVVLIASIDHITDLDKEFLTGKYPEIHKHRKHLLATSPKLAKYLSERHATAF
Chain of Histone-lysine N-methyltransferase NSD2 (O96028 whole entry): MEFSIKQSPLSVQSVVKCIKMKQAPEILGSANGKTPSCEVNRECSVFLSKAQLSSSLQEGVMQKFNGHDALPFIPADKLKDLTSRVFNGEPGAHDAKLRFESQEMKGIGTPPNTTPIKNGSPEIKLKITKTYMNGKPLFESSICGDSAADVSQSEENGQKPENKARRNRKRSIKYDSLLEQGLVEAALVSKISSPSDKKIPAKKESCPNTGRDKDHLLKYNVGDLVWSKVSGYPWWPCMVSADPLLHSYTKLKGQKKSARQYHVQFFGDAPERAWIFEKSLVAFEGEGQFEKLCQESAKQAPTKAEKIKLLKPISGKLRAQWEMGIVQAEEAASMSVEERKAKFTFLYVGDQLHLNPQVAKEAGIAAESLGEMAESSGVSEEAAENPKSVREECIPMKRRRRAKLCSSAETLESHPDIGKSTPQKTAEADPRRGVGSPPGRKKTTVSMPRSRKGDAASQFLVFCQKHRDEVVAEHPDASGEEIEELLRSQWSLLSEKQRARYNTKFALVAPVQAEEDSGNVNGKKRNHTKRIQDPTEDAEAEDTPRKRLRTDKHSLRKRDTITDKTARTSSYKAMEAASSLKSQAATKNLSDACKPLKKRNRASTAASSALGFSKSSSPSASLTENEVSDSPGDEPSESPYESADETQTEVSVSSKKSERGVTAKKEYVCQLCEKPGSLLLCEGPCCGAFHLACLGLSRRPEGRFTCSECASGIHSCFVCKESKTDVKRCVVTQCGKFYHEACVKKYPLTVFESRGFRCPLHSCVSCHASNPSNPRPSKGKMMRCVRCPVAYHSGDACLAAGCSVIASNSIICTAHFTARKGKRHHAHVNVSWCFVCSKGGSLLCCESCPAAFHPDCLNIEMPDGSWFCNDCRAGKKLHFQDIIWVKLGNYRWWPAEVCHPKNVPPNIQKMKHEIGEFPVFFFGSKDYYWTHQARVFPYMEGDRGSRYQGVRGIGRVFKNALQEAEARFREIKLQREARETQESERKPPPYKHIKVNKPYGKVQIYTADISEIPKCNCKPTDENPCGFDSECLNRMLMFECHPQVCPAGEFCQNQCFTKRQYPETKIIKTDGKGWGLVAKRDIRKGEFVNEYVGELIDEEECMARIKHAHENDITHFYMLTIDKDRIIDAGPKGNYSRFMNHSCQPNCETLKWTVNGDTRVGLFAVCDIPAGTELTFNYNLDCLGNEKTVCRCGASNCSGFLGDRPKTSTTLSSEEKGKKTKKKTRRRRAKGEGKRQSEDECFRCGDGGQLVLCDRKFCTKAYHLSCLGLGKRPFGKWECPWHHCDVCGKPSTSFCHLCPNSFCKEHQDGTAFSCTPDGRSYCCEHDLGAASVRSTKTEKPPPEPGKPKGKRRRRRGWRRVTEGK

With `CS(=O)(=O)c1ccc2nc(NC(=O)c3cccc(NS(=O)(=O)c4ccc(F)c(F)c4)c3)sc2c1` the IC50 [1] was > 20 µM (inactive), the IC50 [2] was > 20 µM (inactive) and the IC50 [3] was 3.16 µM (active). The IC50 [4] was 18.4 µM (active), the IC50 [5] was > 20 µM (inactive) and the IC50 [6] was > 20 µM (inactive). The IC50 [7] was 23.7 µM (active), the EC50 [8] was 5.5 µM (active) and the IC50 [9] was 16.9 µM (active).
With `CC(C)c1ccc(N2C(=O)/C(=C/N(C)C)SC2=S)cc1` the EC50 [10] was 5.29 µM (active), the EC50 [11] was 57 µM (active) and the EC50 [12] was 3.85 µM (active). The IC50 [13] was 0.835 µM (active).
With `Cc1cc2c(N)cccc2nn1` the IC50 [14] was 27.2 µM (inactive), the IC50 [15] was > 50 µM (not active) and the AC50 [16] was 4.77 µM (active). The IC50 [17] was 2.14 µM (active), the AC50 [18] was > 350 µM (inactive) and the IC50 [19] was 6 µM (active). The IC50 [20] was > 83.3 µM (inactive), the EC50 [21] was 54.6 µM (active) and the IC50 [22] was 52.6 µM (active). The IC50 [23] was > 83.3 µM (inactive) and the AC50 [24] was > 380 µM (inactive).
